Columns and labels:
[1] = test system: IL-6 trans-signaling dependent secretion of MCP-1 in HUVECs; experiment: HUVEC trans-signaling assay, MCP-1 production; assay type: cell-based, human; details: fusions with ABD variant PP013, in the presence of HSA
Experimental: To address the trans-signaling pathway, a second assay was used. Herein, human umbilical vein endothelial cells (HUVECs) were stimulated with hIL-6 and soluble hIL-6Rα and the readout was the production of monocyte chemoattractant protein-1 (MCP-1). HUVECs (Lonza) were grown in EGM-2 bullet kit media (Lonza) and passaged in culture no more than eight times. Cells were grown until 75% confluence before use. Cells were detached using trypsin/EDTA (Lonza), resuspended and washed once in fresh medium. Next, cells were counted and dispensed into 96 well flat bottom plates at a density of 2×10^4 cells per well. Cells were cultured overnight at 37° C. in a humidified 5% CO2 atmosphere. […] The pre-mixed solutions with the test molecules and hIL-6/hIL-6Rα were then transferred to wells containing HUVECs, which were incubated for 24 h at 37° C. in a humidified 5% CO2 atmosphere. Cell free supernatant was collected after the incubation period and human MCP-1 levels were determined by sandwich ELISA using the MCP-1 Duoset ELISA development system (R&D Systems).
Half area 96-well ELISA plates were coated with anti-MCP-1 capture antibody (R&D Systems) at a concentration of 1 μg/ml. Plates were incubated overnight at 4° C., washed twice in tap water and blocked for 1 h in PBSC. […] The absorbance was measured at 450 nm using a microplate reader (Victor^3, Perkin Elmer).

[2] = test system: IL-6 triggered serum amyloid-A (SAA) protein release; experiment: Serum Amyloid A (SAA) mouse model; assay type: in vivo; details: 25 mg/kg s.c. 9 h before hIL-6 5 μg/kg i.p.; Balb/c mice
Experimental: The IL-6 targeting Z variant Z06814 (SEQ ID NO:1512) and a control Z variant Z04726 (SEQ ID NO:1535) binding an irrelevant target, were cloned and produced in fusion with the ABD variant PP013 (SEQ ID NO:1554) as described in Example 2. Four groups of Balb/c mice (n=8) were injected subcutaneously (s.c.) with various doses (0, 0.025, 2.5 or 25 mg/kg body weight) of Z06814-ABD 9 h prior to intraperitoneal (i.p.) administration of hIL-6 at 5 μg/kg (R&D Systems). A fifth group of mice (n=8) received 25 mg/kg of Z04726-ABD. Two additional control groups of mice received PBS (n=4) and 25 mg/kg of Z06814-ABD (n=8), respectively, but no subsequent IL-6 injection. After 20 h, the blood was taken by cardiac puncture and serum was collected.
Serum was assessed for the content of murine SAA by ELISA (Tridelta) according to the manufacturer's instructions. In brief, diluted serum samples were added to SAA-precoated plates together with anti-SAA-HRP. The plates were incubated for 1 h and then washed four times. TMB substrate was added for 20 min and the reaction was stopped with stop solution. The absorbance was measured at 450 nm using a microplate reader (Victor^3, Perkin Elmer).

Row | Substance | inhibition of IL-6 mediated trans-signaling in HUVECs [1] | SAA protein levels in serum [2] [µg/mL]
1 | Z03638: control Z variant binding an irrelevant target, tested in fusion with ABD variant PP013 [reference compound] | did not | –
2 | Z04726-ABD: control Z variant Z04726 (SEQ ID NO:1553) binding an irrelevant target, in fusion with ABD variant PP013 [reference compound] | – | 500 to 600
